In patent US20230265116A1, “DEGRADATION OF (EGFR) BY CONJUGATION OF EGFR INHIBITORS WITH E3 LIGASE LIGAND AND METHODS OF USE” (BEIGENE, LTD., priority 2020, published 2023):
Read-outs that look alike come from different tables or passages of the source.

What was measured:
[1] = test system: EGFR Del19/T790M/C797S (H1975-clone #28); assay: EGFR degradation HTRF assay, H1975-clone #28 DTC cells; type: cell-based
In short: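 H1975 clones stably overexpressing mutant EGFR, with endogenous EGFR knocked out by sgRNA and homozygosity confirmed by sequencing, were treated 16h at 37° C. with compounds in 0.2% DMSO (top final 10 uM, 5-fold, 8 doses). Lysates were read by HTRF (665/620 nm); DC50 and Dmax came from fitting % degradation versus DMSO control.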

[2] = target: T1, EGFR L858R/T790M/C797S (BaF3-LTC cells) (Homo sapiens, UniProt P00533, C797S/L858R/T790M); assay: EGFR degradation HTRF assay, BaF3-LTC cells; type: cell-based
T1 construct: expressed in transfected cells; host or cells: BaF3
In short: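 Cells treated 16 h at 37 °C, 5% CO2 in medium with 0.2% DMSO; top final concentration 10 uM, 5-fold dilution, 8 doses. Lysates read by HTRF (665/620 nm); degradation % versus DMSO high control, DC50 from four-parameter fit, Dmax as maximal degradation.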

[3] = H1975 # 28 DTC cells; EGFR degradation, IC50 (DC50) from curve fit; read-out: DC50(nM) H1975 # 28 DTC
[4] = H1975 # 28 DTC cells; maximum percentage of inhibition (degradation)
[5] = BaF3-LTC cells; EGFR degradation, IC50 (DC50) from curve fit; read-out: DC50(nM) BaF3-LTC
[6] = BaF3-LTC cells; maximum percentage of inhibition (degradation); read-out: Dmax (%) BaF3-LTC
[7] = read-out: DC50(nM) H1975 # 28 DTC; H1975 # 28 DTC cells; EGFR degradation, IC50 (DC50) from curve fit
[8] = BaF3-LTC cells; maximum percentage of inhibition (degradation)
[9] = read-out: DC50(nM) BaF3-LTC; BaF3-LTC cells; EGFR degradation, IC50 (DC50) from curve fit

T1 sequence (P00533 25-1210 T790M/C797S/L858R): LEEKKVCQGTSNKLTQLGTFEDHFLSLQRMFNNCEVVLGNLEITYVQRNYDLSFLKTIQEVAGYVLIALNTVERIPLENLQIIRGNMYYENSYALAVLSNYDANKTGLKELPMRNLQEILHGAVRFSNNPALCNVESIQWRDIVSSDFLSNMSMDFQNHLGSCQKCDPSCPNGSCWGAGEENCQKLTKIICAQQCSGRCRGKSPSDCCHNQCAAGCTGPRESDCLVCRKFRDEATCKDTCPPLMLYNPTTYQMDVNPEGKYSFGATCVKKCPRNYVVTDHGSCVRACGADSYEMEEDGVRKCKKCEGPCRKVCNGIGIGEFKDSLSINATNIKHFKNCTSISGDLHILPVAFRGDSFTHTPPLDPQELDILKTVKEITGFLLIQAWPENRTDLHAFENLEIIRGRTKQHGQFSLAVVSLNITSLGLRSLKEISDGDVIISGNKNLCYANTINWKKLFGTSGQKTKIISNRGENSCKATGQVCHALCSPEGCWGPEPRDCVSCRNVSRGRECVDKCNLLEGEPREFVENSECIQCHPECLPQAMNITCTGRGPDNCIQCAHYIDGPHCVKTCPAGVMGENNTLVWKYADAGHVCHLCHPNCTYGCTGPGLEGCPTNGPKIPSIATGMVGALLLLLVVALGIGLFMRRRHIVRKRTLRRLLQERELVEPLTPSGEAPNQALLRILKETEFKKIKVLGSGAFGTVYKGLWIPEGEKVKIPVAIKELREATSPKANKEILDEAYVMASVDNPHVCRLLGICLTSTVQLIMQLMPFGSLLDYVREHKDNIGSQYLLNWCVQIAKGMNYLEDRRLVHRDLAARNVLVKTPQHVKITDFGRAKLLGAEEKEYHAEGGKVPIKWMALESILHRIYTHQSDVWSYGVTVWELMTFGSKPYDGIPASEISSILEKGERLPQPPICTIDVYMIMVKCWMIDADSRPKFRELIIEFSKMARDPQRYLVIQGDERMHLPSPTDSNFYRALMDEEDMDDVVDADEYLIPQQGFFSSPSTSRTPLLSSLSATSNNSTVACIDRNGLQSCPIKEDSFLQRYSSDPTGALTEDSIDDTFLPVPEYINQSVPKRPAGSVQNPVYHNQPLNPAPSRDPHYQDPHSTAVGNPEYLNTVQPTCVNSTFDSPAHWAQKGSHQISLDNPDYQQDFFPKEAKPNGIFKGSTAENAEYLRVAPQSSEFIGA

Row | SMILES | DC50 [1, 3] [nM] | DC50 [2, 5] [nM] | Dmax [2, 6] [%] | Dmax (%) H1975 # 28 DTC [1, 4] [%] | DC50 [1, 7] [nM] | Dmax (%) BaF3-LTC [2, 8] [%] | DC50 [2, 9] [nM] | Dmax ([2]; read-out: Dmax (%) BaF3-LTC, BaF3-LTC cells; maximum percentage of inhibition (degradation)) [%]
1 | CCOc1cc(N2CCC(N3CCN(C(=O)[C@@H]4CCN(c5cccc6c5oc(=O)n6C5CCC(=O)NC5=O)C4)CC3)CC2)c(CC)cc1Nc1ncc(Br)c(Nc2ccc3nc(CC)ccc3c2P(C)(C)=O)n1 (stereo partly drawn) [Example 478, 3-(7-((R)-3-(4-(1-(4-((5-bromo-4-((5-(dimethylphosphoryl)-2-ethylquinolin-6-yl)amino)pyrimidin-2-yl)amino)-5-ethoxy-2-ethylphenyl)piperidin-4-yl)piperazine-1-carbonyl)pyrrolidin-1-yl)-2-oxobenzo[d]oxazol-3(2H)-yl)piperidine-2,6-dione] |  |  |  | 80.49 | 0.645 | 88.22 | 3.05 | 
2 | CCc1cc(Nc2ncc(Br)c(Nc3ccc4c(=O)n(C5CC5)ncc4c3P(C)(C)=O)n2)c(OC)cc1N1CCC(N2CCN(CCC3CCN(c4cc(F)c([C@H]5CCC(=O)NC5=O)c(F)c4)CC3)CC2)CC1 [Example 578, (R)-3-(4-(4-(2-(4-(1-(4-((5-bromo-4-((2-cyclopropyl-5-(dimethylphosphoryl)-1-oxo-1,2-dihydrophthalazin-6-yl)amino)pyrimidin-2-yl)amino)-2-ethyl-5-methoxyphenyl)piperidin-4-yl)piperazin-1-yl)ethyl)piperidin-1-yl)-2,6-difluorophenyl)piperidine-2,6-dione] | 3.11 | 12.2 | 96.5 | 87.5 |  |  |  | 
3 | [2H]C1([2H])CC([2H])(c2c(F)cc(CCN3CCN(C4CCN(c5cc(OCC)c(Nc6ncc(Br)c(Nc7ccc8nc(C)ccc8c7P(C)(C)=O)n6)cc5CC)CC4)CC3)cc2F)C(=O)NC1=O (centres unmarked) [Example 570, 3-(4-(2-(4-(1-(4-((5-bromo-4-((5-(dimethylphosphoryl)-2-methylquinolin-6-yl)amino)pyrimidin-2-yl)amino)-5-ethoxy-2-ethylphenyl)piperidin-4-yl)piperazin-1-yl)ethyl)-2,6-difluorophenyl)piperidine-2,6-dione-3,5,5-d3] | 3.03 | 20.5 |  | 76.54 |  |  |  | 
4 | CCc1ccc2c(P(C)(C)=O)c(Nc3nc(Nc4cc(CC)c(N5CCC(N6CCN(CCc7cc(F)c([C@H]8CCC(=O)NC8=O)c(F)c7)CC6)CC5)cc4OC4CC4)ncc3Br)ccc2n1 [Example 547, (R)-3-(4-(2-(4-(1-(4-((5-bromo-4-((5-(dimethylphosphoryl)-2-ethylquinolin-6-yl)amino)pyrimidin-2-yl)amino)-5-cyclopropoxy-2-ethylphenyl)piperidin-4-yl)piperazin-1-yl)ethyl)-2,6-difluorophenyl)piperidine-2,6-dione] | 0.647 | 4.45 | 89.3 | 87.96 |  |  |  | 
5 | CCc1ncc2c(P(C)(C)=O)c(Nc3nc(Nc4cc(CC)c(N5CCC(N6CCN(C(=O)Cc7ccc8c(c7)oc(=O)n8C7CCC(=O)NC7=O)CC6)CC5)cc4OC)ncc3Br)ccc2n1 (centres unmarked) [Example 646, 3-(6-(2-(4-(1-(4-((5-bromo-4-((5-(dimethylphosphoryl)-2-ethylquinazolin-6-yl)amino)pyrimidin-2-yl)amino)-2-ethyl-5-methoxyphenyl)piperidin-4-yl)piperazin-1-yl)-2-oxoethyl)-2-oxobenzo[d]oxazol-3(2H)-yl)piperidine-2,6-dione] |  |  |  | 74.64 | 0.627 |  | 6.2 | 94.5

Further lines, with some results ahead:

Row | DC50 [1, 3] [nM] | DC50 [2, 5] [nM] | Dmax [2, 6] [%] | SMILES | Dmax (%) H1975 # 28 DTC [1, 4] [%] | DC50 [1, 7] [nM] | Dmax (%) BaF3-LTC [2, 8] [%] | DC50 [2, 9] [nM] | Dmax ([2]; read-out: Dmax (%) BaF3-LTC, BaF3-LTC cells; maximum percentage of inhibition (degradation)) [%]
6 | 2.8 | 17.8 | 73.3 | CCOc1cc(N2CCC(N3CCN(CCc4cc(F)c5c(c4)C4(CC4)C(=O)N5C4CCC(=O)NC4=O)CC3)CC2)c(CC)cc1Nc1ncc(Br)c(Nc2ccc3nc(CC)ccc3c2P(C)(C)=O)n1 (centres unmarked) [Example 659, 3-(5′-(2-(4-(1-(4-((5-bromo-4-((5-(dimethylphosphoryl)-2-ethylquinolin-6-yl)amino)pyrimidin-2-yl)amino)-5-ethoxy-2-ethylphenyl)piperidin-4-yl)piperazin-1-yl)ethyl)-7′-fluoro-2′-oxospiro[cyclopropane-1,3′-indolin]-1′-yl)piperidine-2,6-dione] | 77.5 |  |  |  | 
7 | 4.01 | 15.3 | 95.8 | CCOc1cc(N2CCC(N3CCN(CCc4c(F)ccc5c4n(C)c(=O)n5C4CCC(=O)NC4=O)CC3)CC2)c(CC)cc1Nc1ncc(Br)c(Nc2ccc3nc(CC)ccc3c2P(C)(C)=O)n1 (centres unmarked) [Example 648, 3-(4-(2-(4-(1-(4-((5-bromo-4-((5-(dimethylphosphoryl)-2-ethylquinolin-6-yl)amino)pyrimidin-2-yl)amino)-5-ethoxy-2-ethylphenyl)piperidin-4-yl)piperazin-1-yl)ethyl)-5-fluoro-3-methyl-2-oxo-2,3-dihydro-1H-benzo[d]imidazol-1-yl)piperidine-2,6-dione] | 81.9 |  |  |  | 
8 | 4.21 | 16.4 | 90.2 | CCc1ccc2c(P(C)(C)=O)c(Nc3nc(Nc4cc(CC)c(N5CCC(N6CCN(C(=O)[C@@H]7CCN(c8cc(F)c([C@H]9CCC(=O)NC9=O)c(F)c8)C7)CC6)CC5)cc4OC4CC4)ncc3Br)ccc2n1 [Example 655, (R)-3-(4-((R)-3-(4-(1-(4-((5-bromo-4-((5-(dimethylphosphoryl)-2-ethylquinolin-6-yl)amino)pyrimidin-2-yl)amino)-5-cyclopropoxy-2-ethylphenyl)piperidin-4-yl)piperazine-1-carbonyl)pyrrolidin-1-yl)-2,6-difluorophenyl)piperidine-2,6-dione] | 81.86 |  |  |  | 
9 | 6.2 | 22.7 | 95.8 | CCOc1cc(N2CCC(N3CCN(CC4CN(c5cccc6c5oc(=O)n6C5CCC(=O)NC5=O)C4)CC3)CC2)c(CC)cc1Nc1ncc(Br)c(Nc2ccc3c(=O)n(CC)ncc3c2P(C)(C)=O)n1 (centres unmarked) [Example 645, 3-(7-(3-((4-(1-(4-((5-bromo-4-((5-(dimethylphosphoryl)-2-ethyl-1-oxo-1,2-dihydrophthalazin-6-yl)amino)pyrimidin-2-yl)amino)-5-ethoxy-2-ethylphenyl)piperidin-4-yl)piperazin-1-yl)methyl)azetidin-1-yl)-2-oxobenzo[d]oxazol-3(2H)-yl)piperidine-2,6-dione] | 84.26 |  |  |  | 
10 | 0.981 | 3.3 | 87.7 | CCOc1cc(N2CCC(N3CCN(CCc4cc(F)c([C@H]5CCC(=O)NC5=O)c(F)c4)[C@H](CO)C3)CC2)c(CC)cc1Nc1ncc(Br)c(Nc2ccc3nc(CC)ccc3c2P(C)(C)=O)n1 [Example 657, (R)-3-(4-(2-((S)-4-(1-(4-((5-bromo-4-((5-(dimethylphosphoryl)-2-ethylquinolin-6-yl)amino)pyrimidin-2-yl)amino)-5-ethoxy-2-ethylphenyl)piperidin-4-yl)-2-(hydroxymethyl)piperazin-1-yl)ethyl)-2,6-difluorophenyl)piperidine-2,6-dione] | 86.35 |  |  |  | 
11 | 0.564 | 4.01 |  | CCOc1cc(N2CCC(N3CCN(CCc4c(F)ccc5c4n(C)c(=O)n5C4CCC(=O)NC4=O)CC3)CC2)c(CC)cc1Nc1ncc(Br)c(Nc2ccc3nc(CC)ncc3c2P(C)(C)=O)n1 (centres unmarked) [Example 736, 3-(4-(2-(4-(1-(4-((5-bromo-4-((5-(dimethylphosphoryl)-2-ethylquinazolin-6-yl)amino)pyrimidin-2-yl)amino)-5-ethoxy-2-ethylphenyl)piperidin-4-yl)piperazin-1-yl)ethyl)-5-fluoro-3-methyl-2-oxo-2,3-dihydro-1H-benzol[d]imidazol-1-yl)piperidine-2,6-dione] | 81.93 |  |  |  | 
12 | 3.69 | 13.3 | 84 | COc1cc(N2CCC3(CCN(C(=O)[C@@H]4CCN(c5cc(F)c([C@H]6CCC(=O)NC6=O)c(F)c5)C4)CC3)CC2)c(C)cc1Nc1ncc(Br)c(Nc2ccc3nccnc3c2P(C)(C)=O)n1 [Example 667, (R)-3-(4-((R)-3-(9-(4-((5-bromo-4-((5-(dimethylphosphoryl)quinoxalin-6-yl)amino)pyrimidin-2-yl)amino)-5-methoxy-2-methylphenyl)-3,9-diazaspiro[5.5]undecane-3-carbonyl)pyrrolidin-1-yl)-2,6-difluorophenyl)piperidine-2,6-dione] | 77.43 |  |  |  | 
13 | 2.61 | 23.8 |  | CCOc1cc(N2CCC(N3CCN(CCc4c(F)ccc5c4oc(=O)n5C4CCC(=O)NC4=O)CC3)CC2)c(CC)cc1Nc1ncc(Br)c(Nc2cc(F)c3nc(CC)ccc3c2P(C)(C)=O)n1 (centres unmarked) [Example 614, 3-(7-(2-(4-(1-(4-((5-bromo-4-((5-(dimethylphosphoryl)-2-ethyl-8-fluoroquinolin-6-yl)amino)pyrimidin-2-yl)amino)-5-ethoxy-2-ethylphenyl)piperidin-4-yl)piperazin-1-yl)ethyl)-6-fluoro-2-oxobenzo[d]oxazol-3(2H)-yl)piperidine-2,6-dione] | 74 |  | 80.74 |  | 
